# Test results from patent publication US20040171089A1, “High-throughput screening assay for identifying substances capable of modulating cell survival and/or proliferation” (priority 2001, published 2004).
# Key:
# MDA MB 468 cells = experiment: Fura-2 calcium imaging, MDA MB 468 cells; format: cell-based, human; conditions: for % increase of cytosolic calcium / % increase of cytosolic calcium (peak 340/380 nm fura-2 ratio): MDA 468 cells
# Procedure: Human mammary carcinoma (MDA MB 468) cells were obtained from ATCC, Manassas, Va., USA; catalogue number HTB-132; cells were grown in accordance with the manufacturer's instructions.
# (§1) For calcium imaging experiments cells were plated onto poly-L-lysine coated coverslips (13 mm). Single cell imaging was performed utilizing a MiraCal Imaging facility (Life Science Resources, Cambridge, U.K.) with a Nikon Diaphot-TMD inverted epifluorescence microscope equipped with a ×40 oil immersion objective and Sutter filter wheel. The imager was equipped with a Lambert intensifier 1187 (Life Sciences Resources) providing a ×30 enhancement of the fluorescent signal, thus limiting phototoxicity.
# (§2) Fura-2 acetoxymethyl ester (fura-2 AM) incubations with the cells were performed at 37° C. in a medium containing (in mM): 120 NaCl, 3.5 KCl, 0.4 KH2PO4, 5 NaHCO3, 1.2 Na2SO4, 15 glucose, 1.2 MgCl2, 1 CaCl2, and 20 TES [N-tris(hydroxymethyl) methyl-2-aminoethane sulphonic acid] pH adjusted to 7.4 with NaOH. Typically cells were incubated in 3 μM fura-2 AM for 25 min., which permitted sufficient accumulation of free fura-2 in the cell cytoplasm. Cells were then illuminated alternately at 340 and 380 nm with the emitted 505 nm light being detected by a photomultiplier. Free fura emits maximally when excited at 380 nm, whilst the calcium bound fura has a maximal emission when excited at 340 nm. Thus the ratio of emission when alternately excited at 340/380 nm is a measure of the calcium concentration in equilibrium with the chelator. Changes of intracellular calcium were quantified as the percentage increase of the fluorescent ratio (determined at ˜505 nm) obtained by exciting the test cells alternatively at 340 nm (optimal for calcium bound dye) and 380 nm.
# MCF-7 cells = experiment: Fura-2 calcium imaging, MCF-7 cells; format: cell-based, human; conditions: 10 μM
# Procedure: as §1
# as §2, with “Free fura emits maximally when excited at 380 nm, whilst the calcium bound fura has a maximal emission when excited at 340 nm. Thus the ratio of emission when alternately excited at 340/380 nm is a measure of the calcium concentration in equilibrium with the chelator.” left out
# [1] = system: human prostate epithelial cells; experiment: Fura-2 calcium imaging, prostate epithelial cells; format: cell-based
# Procedure: Human prostate epithelial cells (catalogue number CC-2555; stain positive for cytokeratin 8,13.)
# as §1
# as §2, with “Free fura emits maximally when excited at 380 nm, whilst the calcium bound fura has a maximal emission when excited at 340 nm. Thus the ratio of emission when alternately excited at 340/380 nm is a measure of the calcium concentration in equilibrium with the chelator.” left out
# [2] = system: cerebellar granule neurones; experiment: Fura-2 calcium imaging, cerebellar granule neurones; format: cell-based, rat; conditions: 3 μM; cerebellar granule cells
# Procedure: Cerebellar granule cells were prepared from 6-7 day post natal rats as previously described (see Courtney, M. J., Lambert, J. J. and Nicholls, D. G. [1990] J. Neuroscience 10: 3873-3879).
# as §1
# Fura-2 acetoxymethyl ester (fura-2 AM) incubations with the cells were performed at 37° C. in a medium containing (in mM): 120 NaCl, 3.5 KCl, 0.4 KH2PO4, 5 NaHCO3, 1.2 Na2SO4, 15 glucose, 1.2 MgCl2, 1 CaCl2, and 20 TES [N-tris(hydroxymethyl) methyl-2-aminoethane sulphonic acid] pH adjusted to 7.4 with NaOH. […] Cells were then illuminated alternately at 340 and 380 nm with the emitted 505 nm light being detected by a photomultiplier. […] Changes of intracellular calcium were quantified as the percentage increase of the fluorescent ratio (determined at ˜505 nm) obtained by exciting the test cells alternatively at 340 nm (optimal for calcium bound dye) and 380 nm.
# mammary epithelial cells = experiment: MTS cell viability/proliferation assay, mammary epithelial cells; format: cell-based, human; conditions: 1-10 μM
# Procedure: Human mammary epithelial cells (catalogue number CC-2551; stain positive for cytokeratins 14, 18 and 19)
# This was carried out using an MTS assay (reagents from Promega Corporation, Madison Wis., USA) which is a modification of the MTT assay (as described in Jacobson et al, 1994 EMBO J Vol 13 pp1899-1910). The assay depends on conversion of the MTS tetrazolium compound to a coloured formazan product in metabolically active cells; it is therefore an assay of viable cell number. A decline in values implies cell killing as long as cell disappearance by apoptosis in untreated cell populations is absent or negligible (as with most healthy primary cell populations).
# Cells were seeded in the range 1.5×10^5-1.8×10^5 cells per ml of culture medium in 96 well microtitre plates and allowed to attach in a humidifed atmosphere of 5% CO2 in air at 37 deg C. Drugs were added 18-24 hours later and cell viability/proliferation measured at time intervals up to 48-72 hours post-drug addition when the experiment was terminated. […]
# Cell viability was measured as follows: 20 μl of MTS solution (Promega) was added to wells and incubated at 37 deg C. for 3 hours during which time a coloured formazan product is generated in viable cells. […] Viable cell number was then measured by reading absorbance at 490 nm in a Dynex microtitre plate reader. […]
# phospholipase C = experiment: GFP-PH PLCdelta 1 relocalisation (PLC activation) in MDA MB 468 cells; format: cell-based, human
# Description: The inventors introduced a recombinant plasmid vector encoding a hybrid protein comprised of the pleckstrin homology (PH) domain of phospholipase C (PLC) delta 1 fused green fluorescent protein (GFP) (GFP-PH PLCdelta 1) into MDA MB 468 mammary carcinoma cells. A standard transfection method (Fugene-6—Roche) was used. […] Cells were maintained in DMEM with 10% fetal bovine serum at 37 deg C. in 5% CO2 before and during exposure to sigma ligands which were present at a range of concentrations. Effects on the GFP-PH PLCdelta 1 protein were studied in two ways: by time lapse microscopy (using a Leica inverted fluorescence microscope and a Hammamatsu Orca charge-coupled device camera, linked to an Improvision Open Lab image processing workstation). This enabled the time course of effects to be determined. […] Control cell populations received drug vehicle alone and were analysed at the same time points.
# GFP-PH PLC delta 1—expressing MDA MB 468 cells were exposed to sigma antagonists in 1 mM and 0 mM (nominally calcium-free) buffer (as used for the calcium imaging experiments, described above) and monitored by time lapse imaging as above.
# PKB/Akt = experiment: PKB immunoprecipitation activity assay in MDA MB 468 cells; format: cell-based, human
# Procedure: All cells received 1% DMSOvehiclefor the duration of stimulation. […] Data pointsshown are the mean PKB activity relative to vehicle treated cells from three independently treated dishes of cells with error barsindicating the standard deviation. As controls, cells were treatedwith the PI 3-kinase inhibitor wortmannin for 30 minutes orstimulated with serum for 5 minutes; and
# MDA MB 468 cells were exposed to the sigma antagonist IPAG at 100 μM and 10 μM concentrations for periods of time up to 4 hours. At intervals, cells were lysed and then subjected to PKB immunoprecipitation, precisely as has been described previously (Leslie et al., 2001, Biochemical Journal, Vol 357 p427). This method, which is recognised in the art, provides a quantitative measure of PKB activity. FIG. 5c depicts a concentration- and time-dependent decline in PKB activity when cells were exposed to IPAG.
# sigma-1 sites = sigma-1 sites (Homo sapiens, UniProt Q99720); conditions: Whittemore et al 1997; read-out: inhibition constant for sigma-1 sites; cited from earlier work
# Chain of sigma-1 sites (Q99720 whole entry): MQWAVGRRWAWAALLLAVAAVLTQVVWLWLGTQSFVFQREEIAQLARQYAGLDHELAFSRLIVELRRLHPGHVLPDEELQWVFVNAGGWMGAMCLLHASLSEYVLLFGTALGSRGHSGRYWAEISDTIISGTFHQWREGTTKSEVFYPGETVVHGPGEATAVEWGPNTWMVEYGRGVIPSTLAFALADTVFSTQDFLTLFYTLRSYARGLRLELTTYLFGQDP
structure (smiles),measurement,setting,value
"N=C(Nc1ccc(I)cc1)NC1C2CC3CC(C2)CC1C3 (stereo not drawn) [IPAG, 1-(4-iodophenyl)-3-(2-adamantyl)guanidine]",% increase of cytosolic calcium,"MDA MB 468 cells; 1 μM, 100 μM extracellular calcium",40±14%
same,% increase of cytosolic calcium,"MDA MB 468 cells; 1 μM, 1 mM extracellular calcium (FIG. 3a experiment)",157±10%
same,% increase of cytosolic calcium (peak 340/380 nm fura-2 ratio),MDA MB 468 cells; 1 μM,54±7%
same,% increase of cytosolic calcium,"MDA MB 468 cells; 1 μM, absence of extracellular calcium",1±0.4%
same,% increase of cytosolic calcium (peak 340/380 nm fura-2 ratio),MDA MB 468 cells; 3 μM,112±8%
same,% increase of cytosolic calcium,"MDA MB 468 cells; 10 μM, 100 μM extracellular calcium",237±12%
same,time of decline of intracellular calcium to baseline,"MDA MB 468 cells; 10 μM, 0.1 mM extracellular calcium, MDA MB 468 cells",≤ 10 min
same,% increase of cytosolic calcium,"MDA MB 468 cells; 10 μM, 1 mM extracellular calcium (FIG. 3a experiment)",230±12%
same,time calcium elevation remains close to peak levels,"MDA MB 468 cells; 10 μM, 1 mM extracellular calcium, MDA MB 468 cells",at least 30 minutes
same,% increase of cytosolic calcium (peak 340/380 nm fura-2 ratio),MDA MB 468 cells; 10 μM,125±7%
same,time to peak effect on cytosolic calcium,"MDA MB 468 cells; 10 μM, MDA MB 468 cells",≤ 5 min
same,% increase of cytosolic calcium,"MDA MB 468 cells; 10 μM, absence of extracellular calcium",4±2%
same,effect on cytosolic calcium levels (in words),"MDA MB 468 cells; MDA MB 468 cells, FIG. 2a: IPAG 1-10 μM, rimcazole 10-30 μM, (+)-SKF 10,047 10 μM, (+)-pentazocine 10-30 μM, ibogaine 10-50 μM",increase cytosolic calcium levels
same,time by which calcium levels have returned to baseline,MCF-7 cells,≤ 30 min
same,time to peak effect on cytosolic calcium,MCF-7 cells,≤ 5 min
same,% increase of cytosolic calcium (peak 340/380 nm fura-2 ratio),[1]; 1 μM,10±5%
same,% increase of cytosolic calcium (peak 340/380 nm fura-2 ratio),[1]; 10 μM,25±5%
same,% increase of cytosolic calcium (peak 340/380 nm fura-2 ratio),[2],20±2%
same,Cytotoxicity,mammary epithelial cells,not cytotoxic
same,relocalisation of GFP-PH PLC delta 1 from membrane to cytosol,"phospholipase C; 100 μM, approximately 10 minutes, DMEM with 10% fetal bovine serum",pronounced relocalisation
same,localisation of GFP-PH PLC delta 1,phospholipase C; nominally calcium-free buffer (0 mM calcium),remained membrane-localised
same,PKB activity,"PKB/Akt; 10 μM, up to 4 hours",later decline in PKB activity
same,PKB activity,"PKB/Akt; 100 μM, within 5 minutes, sustained to at least 30 minutes",profoundly inhibited PKB activity
same,Ki,sigma-1 sites,~2.8 nM
